Patent US8980241B2, “Polymerized cyclic nitroxide radical compound and use thereof” (University of Tsukuba, priority 2008, dated 2015)

Key:
[1] = Test 4: in-blood retention after vein injection (ESR of blood plasma); settings: in vivo, mouse, injected in the vein
Description: Each of N-TEMPO-RNP and O-TEMPO-RNP prepared as described above was independently injected in the vein of a different mouse, and after a given time period, laparotomy was performed to carry out blood collection from the heart. After blood collection, centrifugal separation was performed at 6,200 rpm (2000×g) for 10 minutes to obtain blood plasma. When the ESR spectrum of the obtained blood plasma was measured, an ESR signal of each RNP was observed from within the blood. In addition, when the disposition thereof was examined, the half-life was approximately 20 minutes for the former (FIG. 9) and approximately one hour for the latter (FIG. 10).

[2] = tested on: Cerebral ischemia model rat; experiment: Test 5 (1): treatment of cerebral ischemia model rat; settings: in vivo
[3] = tested on: cerebral ischemia model rats
[4] = Test 2: reduction-resistance against glutathione (ESR); format: physicochemical; settings: 10 mM glutathione, pH7.2, one hour after colocalization with GSH
Description: It is known that, in general, while the interior of a cell is a reductive environment with high concentrations (0.5 mM to 10 mM) of glutathione present, on the order of only one over 100 to 1000 of that in the cell is present in blood.

[5] = Test 3: reduction-resistance against ascorbic acid (ESR); format: physicochemical; settings: 3.6 mM AsA, PBS buffer pH 7.4
Description: AsA, also referred to as vitamin C, is present in general at high concentrations in blood.

Compound	half-life [1] [s]	cell death-protection effect in TTC-stained brain [2]	cell death in TTC-stained brain ([2]; iv)	average blood pressure at the time of agent administration ([3]; cerebral ischemia model rats, N=20)	neurological symptom score ([3]; score 0-3, N=20)	decrease in the intensity of the ESR signal [4] [%]	half-life (ESR signal) [5] [s]
CC1(C)CC(O)CC(C)(C)N1[O] [Tempol, 4-hydroxy-2,2,6,6-tetramethylpiperidine-1-oxyl]	< 60	more cell death-protection effect at a given level or greater was obtained than with intravenous administration	more effect than N-TEMPO-RNP was not observed	decreased significantly	no significant differences	–	–
2,2,6,6-tetramethylpiperidino oxy radical [TEMPO]	–	–	–	–	–	50	≤ 20
